# Reference: patent US20170293715A1, “SYSTEMS, METHODS AND SOFTWARE FOR RANKING POTENTIAL GEROPROTECTIVE DRUGS” (Insilico Medicine, Inc., priority 2014, published 2017)
# Several values for one entry are separate records, joined by “and”; a condition that tells them apart may be missing. Identical values can stand only once.
# Key:
# Type in all cases: cell-based
# [1] = system: Circadian signaling pathway; experiment: PAS score of Circadian pathway in late-passage human fibroblasts cultured with putative geroprotectors; details: 48 hours, aged human fibroblasts (aliquot C) vs aliquot A control
# Experimental: (§1) PASp=ΣNIInp×ARRnp×BTIFn×lg(CNRn)
# (§2) The culture of human fibroblasts was isolated from skin of a healthy adult donor and cultured for five passages in DMEM/F12 medium supplemented by 10% FBS. The tissue sample was obtained with the written consent of a donor according to EU and local ethical guidelines. An aliquot containing ˜10 million cells was frozen in liquid nitrogen (aliquot A), whereas the remaining part of the cell culture was grown for 20 additional passages in the same medium. The cells were then harvested and stored in liquid nitrogen (aliquot B). Aliquot B cells were then cultured for two additional passages and then cultured for 48 hours in the presence of four putative geroprotector drugs. The resulting cells were harvested (aliquot C). The transcriptomes of the aliquots A, B and C were investigated with the Illumina HT12 v4 gene expression microarrays (Illumina, USA). In such a way we profiled expression of the genes implicated in the functioning of the following ten signaling pathways: AHR, AKT, Circadian, DNA repair mechanisms, EGFR, ERK signaling, Estrogen pathway, FLT3, Growth hormone, Hedgehog.
# (§3) Zero PAS value means identical signaling pathway activation pattern in the older (aliquots B and C) and younger (aliquot A) fibroblasts.
# human skin fibroblasts = experiment: Reversion of PAS patterns to the younger state, ranking of geroprotectors
# Experimental: (§4) The culture of human fibroblasts was isolated from skin of a healthy adult donor and cultured for five passages in DMEM/F12 medium supplemented by 10% FBS. The tissue sample was obtained with the written consent of a donor according to EU and local ethical guidelines. An aliquot containing ˜10 million cells was frozen in liquid nitrogen (aliquot A), whereas the remaining part of the cell culture was grown for 20 additional passages in the same medium. The cells were then harvested and stored in liquid nitrogen (aliquot B). Aliquot B cells were then cultured for two additional passages and then cultured for 48 hours in the presence of four putative geroprotector drugs. The resulting cells were harvested (aliquot C). […] The information about pathway configuration and functional roles of the individual genes was taken from the public database provided by SABiosciences (SABiosciences, a Qiagen company. Using Student statistical criterion and a threshold p-value <0.05, we identified a list of the differential genes and calculated for them CNRn values. The set of gene expression data corresponding to the “aliquot A” group of samples was taken as the control. The data were processed with the algorithm for the calculation of PAS, and the following pathway activation data were obtained (Table 9). […]
# FLT3 signaling pathway = experiment: PAS score of FLT3 pathway in late-passage human fibroblasts cultured with putative geroprotectors; set-up: unit of the concentration uncertain; details: 48 hours, aged human fibroblasts (aliquot C) vs aliquot A control
# Experimental: as §1, §2, §3
# [2] = system: Hedgehog signaling pathway; experiment: PAS score of Hedgehog pathway in late-passage human fibroblasts cultured with putative geroprotectors; set-up: unit of the concentration uncertain; details: 48 hours, aged human fibroblasts (aliquot C) vs aliquot A control
# Experimental: as §1
# The culture of human fibroblasts was isolated from skin of a healthy adult donor and cultured for five passages in DMEM/F12 medium supplemented by 10% FBS. The tissue sample was obtained with the written consent of a donor according to EU and local ethical guidelines. An aliquot containing ˜10 million cells was frozen in liquid nitrogen (aliquot A), whereas the remaining part of the cell culture was grown for 20 additional passages in the same medium. The cells were then harvested and stored in liquid nitrogen (aliquot B). Aliquot B cells were then cultured for two additional passages and then cultured for 48 hours in the presence of four putative geroprotector drugs. The resulting cells were harvested (aliquot C). The transcriptomes of the aliquots A, B and C were investigated with the Illumina HT12 v4 gene expression microarrays (Illumina, USA). In such a way we profiled expression of the genes implicated in the functioning of the following ten signaling pathways: AHR, AKT, Circadian, DNA repair mechanisms, EGFR, ERK signaling, Estrogen pathway, FLT3, Growth hormone, Hedgehog. The information about pathway configuration and functional roles of the individual genes was taken from the public database provided by SABiosciences (SABiosciences, a Qiagen company. Using Student statistical criterion and a threshold p-value <0.05, we identified a list of the differential genes and calculated for them CNRn values. The set of gene expression data corresponding to the “aliquot A” group of samples was taken as the control. The data were processed with the algorithm for the calculation of PAS, and the following pathway activation data were obtained (Table 9).
# Zero PAS value means identical signaling pathway activation pattern in the older (aliquots B and C) and younger (aliquot A) fibroblasts. […] The present invention proposes ranking of the geroprotector drugs according to their ability to compensate aging-related differences in signaling pathway activation reflected by the PAS values.
# DNA repair mechanisms = experiment: PAS score of DNA repair pathway in late-passage human fibroblasts cultured with putative geroprotectors; details: 1 mM, 48 hours, aged human fibroblasts (aliquot C) vs aliquot A control
# Experimental: as §1, §4
# [3] = system: Growth hormone (GH) signaling pathway; experiment: PAS score of Growth hormone pathway in late-passage human fibroblasts cultured with putative geroprotectors; details: 1 mM, 48 hours, aged human fibroblasts (aliquot C) vs aliquot A control
# Experimental: as §1, §4
# AHR signaling pathway = experiment: PAS score of AHR pathway in late-passage human fibroblasts cultured with putative geroprotectors; details: 48 hours, aged human fibroblasts (aliquot C) vs aliquot A control
# Experimental: as §1, §2, §3
compound,measurement,setting,value
Oc1ccc(C=Cc2cc(O)cc(O)c2)cc1 [Resveratrol],PAS Circadian,[1]; 1 mM,4
same,pathways whose PAS patterns were better reverted to the younger state,"human skin fibroblasts; 1 mM, of the ten pathways tested",7/10
same,ranking as geroprotector among the four tested,human skin fibroblasts; combined experimental and biomathematical system,best putative geroprotector drug
same,PAS FLT3,FLT3 signaling pathway; 1 (unit uncertain),2
same,PAS Hedgehog,[2]; 1 (unit uncertain),9 and 11
NCCCCNCCCN [Spermidine],PAS Circadian,[1]; 1 mM,5 and 8
same,PAS DNA repair,DNA repair mechanisms,−10
same,PAS GH,[3],−9
same,PAS AHR,AHR signaling pathway; 1 mM,3 and 2
same,PAS Hedgehog,[2]; 1 (unit uncertain),17 and 18
O=C(O)c1nn(Cc2ccc(Cl)cc2Cl)c2ccccc12 [Lonidamine],PAS Circadian,[1]; 5 mM,5 and 7
same,PAS AHR,AHR signaling pathway; 5 mM,2 and 4
same,PAS FLT3,FLT3 signaling pathway; 5 (unit uncertain),−1
same,PAS Hedgehog,[2]; 5 (unit uncertain),17 and 22
COC[C@H]1OC(=O)c2coc3c2[C@@]1(C)C1=C(C3=O)[C@@H]2CCC(=O)[C@@]2(C)C[C@H]1OC(C)=O [Wortmannin],PAS Circadian,[1]; 0.5 mM,6 and 5
same,PAS AHR,AHR signaling pathway; 0.5 mM,1 and 2
same,PAS Hedgehog,[2]; 0.5 (unit uncertain),12 and 10
